Assays:
[1] = system: interferon (α); test: Cytokine induction in human cells: interferon secreted by PBMCs, ELISA; assay type: cell-based; conditions: PBMC, incubated 18 to 24 hours, interferon determined by ELISA, read-out: Lowest Effective Concentration (μM) Interferon
From the text: (§1) An in vitro human blood cell system was used to assess cytokine induction by compounds of the invention. Activity is based on the measurement of interferon and tumor necrosis factor (α) (IFN and TNF, respectively) secreted into culture media as described by Testerman et. al. In “Cytokine Induction by the Immunomodulators Imiquimod and S-27609”, Journal of Leukocyte Biology, 58, 365-372 (September, 1995).
(§2) Whole blood is collected by venipuncture into EDTA vacutainer tubes from healthy human donors. Peripheral blood mononuclear cells (PBMCs) are separated from whole blood by density gradient centrifugation using Histopaque®-1077 (Sigma Chemicals, St. Louis, Mo.). The PBMCs are suspended at 3-4×10^6 cells/mL in RPMI 1640 medium containing 10% fetal bovine serum, 2 mM L-glutamine and 1% penicillin/streptomycin solution (RPMI complete). The PBMC suspension is added to 48 well flat bottom sterile tissue culture plates (Costar, Cambridge, Mass. or Becton Dickinson Labware, Lincoln Park, N.J.) containing an equal volume of RPMI complete media containing test compound.
(§3) The compounds are solubilized in dimethyl sulfoxide (DMSO). The DMSO concentration should not exceed a final concentration of 1% for addition to the culture wells.
(§4) The solution of test compound is added at 60 μM to the first well containing RPMI complete and serial (three fold or ten fold) dilutions are made. The PBMC suspension is then added to the wells in an equal volume, bringing the test compound concentrations to the desired range. The final concentration of PBMC suspension is 1.5-2×10^6 cells/mL. The plates are covered with sterile plastic lids, mixed gently and then incubated for 18 to 24 hours at 37° C. in a 5% carbon dioxide atmosphere.
(§5) Following incubation the plates are centrifuged for 5-10 minutes at 1000 rpm (˜200×g) at 4° C. The cell culture supernatant is removed with a sterile polypropylene pipet and transferred to sterile polypropylene tubes. Samples are maintained at −30 to −70° C. until analysis. The samples are analyzed for interferon (α) by either ELISA or bioassay and for tumor necrosis factor (α) by ELISA.
Interferon (α) concentration is determined by ELISA using a Human Multi-Species kit from PBL Biomedical Laboratories, New Brunswick, N.J.
(§6) The table below lists the lowest concentration found to induce interferon and the lowest concentration found to induce tumor necrosis factor for each compound. […] Unless otherwise indicated, the interferon biosynthesis was determined by ELISA.

[2] = system: tumor necrosis factor (α); test: Cytokine induction in human cells: tumor necrosis factor (α) secreted by PBMCs, ELISA; assay type: cell-based; conditions: PBMC, incubated 18 to 24 hours, TNF determined by ELISA, read-out: Lowest Effective Concentration (μM) Tumor Necrosis Factor
From the text: as §1, §2, §3, §4, §5
Tumor necrosis factor (α) (TNF)concentration is determined using ELISA kits available from Genzyme, Cambridge, Mass.; R&D Systems, Minneapolis, Minn.; or Pharmingen, San Diego, Calif.
as §6

melting point	SMILES	minimal effective concentration [1]	minimal effective concentration [2]
215.4 °C (dec.)	Nc1nc2ccccc2c2c1ncn2CCCCNC(=O)c1ccc(-c2ccccc2)cc1 [Example 34, N^1-[4-(4-Amino-1H-imidazo[4,5-c]quinolin-1-yl)butyl]-4-phenylbenzamide]	> 30 µM	3.33 µM
103 to 105 °C	Nc1nc2ccccc2c2c1ncn2CCCCNC(=O)c1cccc(C(=O)c2ccccc2)c1 [Example 15, N^1-[4-(4-Amino-1H-imidazo[4,5-c]quinolin-1-yl)butyl]-3-benzoylbenzamide]	3.33 µM	> 30 µM
61.5 °C (dec.)	Nc1nc2ccccc2c2c1ncn2CCCCNC(=O)COc1ccccc1 [Example 35, N^1-[4-(4-Amino-1H-imidazo[4,5-c]quinolin-1-yl)butyl]-2-phenoxyacetamide]	1.11 µM	> 30 µM
222.8 to 225.3 °C	N#Cc1ccc(C(=O)NCCCCn2cnc3c(N)nc4ccccc4c32)cc1 [Example 32, N^1-[4-(4-Amino-1H-imidazo[4,5-c]quinolin-1-yl)butyl]-4-cyanobenzamide]	3.33 µM	> 30 µM
124 to 126 °C	CCCCc1nc2c(N)nc3ccccc3c2n1CCNC(=O)CCCCC1SCC2NC(=O)NC21 (stereo not drawn) [Example 28, N^1-[2-(4-Amino-2-butyl-1H-imidazo[4,5-c]quinolin-1-yl)ethyl]-5-(2-oxoperhydrothieno[3,4-d]imidazol-4-yl)pentanamide]	0.12 µM	> 30 µM
160 to 170 °C (dec.)	Nc1nc2ccccc2c2c1ncn2CCCCNC(=O)c1ccc(N2CCOCC2)nc1 [Example 12, N^3-[4-(4-Amino-1H-imidazo[4,5-c]quinolin-1-yl)butyl]-6-morpholinonicotinamide]	3.33 µM	> 30 µM
95 to 96 °C	CCCCc1nc2c(N)nc3ccccc3c2n1CCNC(=O)CCCCC1SCC2NC(=N)NC21 (stereo not drawn) [Example 26, N^1-[2-(4-Amino-2-butyl-1H-imidazo[4,5-c]quinolin-1-yl)ethyl]-5-(2-iminoperhydrothieno[3,4-d]imidazol-4-yl)pentanamide]	0.37 µM	10 µM
183 to 186 °C	COCCc1nc2c(N)nc3ccccc3c2n1CCCNC(=O)c1ccccc1 [Example 196, N-{3-[4-amino-2-(2-methoxyethyl)-1H-imidazo[4,5-c]quinolin-1-yl]propyl}benzamide]	0.01 µM	0.37 µM
149.5 to 151.3 °C	CCCCc1nc2c(N)nc3ccccc3c2n1CCCCCCCCNC(=O)c1ccccc1 [Example 186, N-[8-(4-amino-2-butyl-1H-imidazo[4,5-c]quinolin-1-yl)octyl]benzamide]	0.04 µM	0.12 µM
103 to 125 °C	COCCc1nc2c(N)nc3ccccc3c2n1CC(C)(C)CNC(=O)c1ccccc1 [Example 190, N-{3-[4-amino-2-(2-methoxyethyl)-1H-imidazo[4,5-c]quinolin-1-yl]-2,2-dimethylpropyl}benzamide]	0.01 µM	0.01 µM
85 to 87.5 °C	CC(Oc1ccccc1)C(=O)NCCCCn1cnc2c(N)nc3ccccc3c21 (stereo not drawn) [Example 41, N^1-[4-(4-Amino-1H-imidazo[4,5-c]quinolin-1-yl)butyl]-2-phenoxypropanamide]	1.11 µM	> 30 µM
77 °C	Nc1nc2ccccc2c2c1ncn2CCCCNC(=O)[C@H]1C[C@@H]1c1ccccc1 (relative stereo) [Example 37, N^1-[4-(4-Amino-1H-imidazo[4,5-c]quinolin-1-yl)butyl]-(trans)-2-phenylcyclopropane-1-carboxamide]	0.37 µM	> 30 µM
